{
  "source": "patent US10759754B2",
  "about": "“Aminobenzoic acid derivatives for use as anti-inflammatory agents, anti-metastatic agents and/or anticancer agents” (3R VALO, S.E.C., priority 2016, dated 2020)",
  "key": {"MB49 cells": {"system": "MB49 cells", "assay": "Relative cell viability of MB49 cells 24-hour post treatment", "format": "cell-based, murine", "settings": "3 h treatment, 0-50 μM", "method": "Evaluation of cell proliferation by the MTT assay. […] Cells were pretreated for a period of 3 h with vehicle (DMSO) or derivatives 1 and 1A at 0, 10, 25, 37.5, and 50 μM, and then incubated for 24 h in the absence or the presence of INFγ and TNFα. At the end of the culture period, 10 μL of 5 mg/mL methylthiazolyldiphenyl-tetrazolium bromide (MTT) solution was added to each well. After a 3-h incubation period with MTT reagent, 100 μL of MTT solubilization buffer (10% SDS in 10 mM HCl) was added and plates were placed overnight in the cell incubator before absorbance measure. The optical density was read at 580 nm using the Microplate Reader Manager (from Bio-Rad Laboratories)."}, "STAT3": {"system": "STAT3", "assay": "Western blot of phosphorylated STAT3 in IL6-activated human macrophages", "format": "cell-based", "settings": "human macrophages pretreated 30 min at 10 and 50 μM; 30 min activation with 25 ng/mL IL6", "method": "(§1) Cell signaling studies: THP1-derived human macrophages (750×10^3 cells/mL) and MB49-I cells (500×10^3 cells/mL) were pretreated for 30 min with vehicle (DMSO), compounds 4 and 5, at 10, 25 or 50 μM; and then washed and recovered immediately (t=0 min) or after 30 min of activation with 50 U/mL IFNγ, 25 ng/mL IL6, or 10 ng/mL TNFα. Cell lysates were prepared and analyzed by immunoblotting as described.^21-23,25 Briefly, protein samples were resolved by SDS-PAGE under reducing conditions and transferred onto a PVDF membrane. Blots were first probed with rabbit polyclonal antibodies against phospho-STAT1 (pSTAT1), pSTAT3, or p-IκB (all at 1:2000) overnight at 4° C. Blots were then incubated with HRP-conjugated goat anti-rabbit IgG Ab (1:3000) for 1 h at room temperature. The same blots were stripped and then probed with anti-STAT1 or anti-STAT3 Abs (both at 1:1000). In both cases, probed molecules were visualized using an enhancement chemiluminescence detection kit (Thermo Fisher Scientific)."}, "human UBC T24 cells [1]": {"system": "human UBC T24 cells", "assay": "Microinvasion assay (matrigel in Boyden chamber), M1-induced T24 cell invasion", "format": "cell-based", "method": "Microinvasion assays. Invasion was measured by assessment of human UBC T24 cell migration rate through an artificial basement membrane in a modified Boyden chamber (HTS Transwell System). Briefly, the membrane consisted of a polycarbonate filter with 0.4 μm pores diameter and was coated on ice with Matrigel (BD Biosciences) diluted 1:2 (v/v) in serum-free culture media. T24 cells (50×10^3 cells) were seeded into the Matrigel coat in the upper well of the chamber, while polarized M1 macrophages (50×10^3 cells) were seeded in the lower well. The polycarbonate filter with 0.4 μm pores diameter is too small to left the cells move to the bottom of the lower wells. Thus, non-invading cells into the matrigel coat were removed and cells that migrated down to the polycarbonate filter were stained with Hoescht 33258 dye after a 48-h incubation period, visualized by fluorescence microscopy and counted."}, "human UBC T24 cells [2]": {"system": "human UBC T24 cells", "assay": "Motility (scratch) assay, IL6-induced, in T24 cells", "format": "cell-based", "settings": "30 μM"}, "[3]": {"system": "IL6/STAT3 signaling pathway", "assay": "Western blot of IL6/STAT3 signaling in MB49-I cells", "format": "cell-based, murine", "settings": "doses as lower as 10 μM", "method": "as §1"}, "peritoneal macrophages": {"system": "peritoneal macrophages", "assay": "NO and urea production in peritoneal macrophages after in vivo treatment of MB49 tumor-bearing mice", "settings": "treatment at 90 and 150 μM; macrophages recovered day 26", "method": "Evaluation of NO and Urea production by chemical methods. The MB49-I cells and the J774A.1 cells (25×10^3 cells/well) were grown and pretreated, as indicated, with various anti-inflammatory derivatives, precursors and mono-functional derivatives for a period of 3 h. Afterwards the cells were washed twice with 10% FBS RPMI-1640 and then activated to produce NO for a period of 24 h with cytokines INFγ and TNFα. NO production was measured using the Griess reagent method as previously described.^27 This method involves the detection of nitrite ions (NO2^−) formed by the spontaneous oxidation of NO under physiological conditions. […] In the presence of NO2^−, sulfanilic acid is converted to a diazonium salt, which in turn is coupled to N-(1-naphthyl)ethylenediamine to produce a pink coloration that is measured with a spectrophotometer (Biotek, synergy HT) at 548 nm. In the same manner, urea synthesis through arginase-1 activity was measured using commercially available kit.\nEctopic UBC model. […] Growth rates of the s.c. tumors were monitored. The size of tumors was determined every 3 days for 24-28 days using a digital caliper and by measuring luciferin luminescence at days 15 and 25 using the IVIS imaging system. A blinded observer measured tumor length and width. […]"}, "CD40": {"system": "CD40", "assay": "Flow cytometry of CD40 surface antigen in IFNγ-activated human macrophages", "format": "cell-based", "settings": "compound 4 at 10 μM, compound 5 at 25 μM", "method": "(§2) Surface antigen expression analysis. To study membrane receptor expression, THP1-derived human macrophages (750×10^4 cells/mL) were pretreated for 3 h with DMSO or compounds 4 and 5, and then left untreated (control) or treated for 48 h with 50 U/mL IFNγ. The expression level of MHC-II and CD40 was evaluated by flow cytometry as described.^21-23"}, "MHC-II": {"system": "MHC-II", "assay": "Flow cytometry of MHC-II surface antigen in IFNγ-activated human macrophages", "format": "cell-based", "settings": "compound 4 at 10 μM, compound 5 at 25 μM", "method": "as §2"}, "MB49-I tumors": {"system": "MB49-I tumors", "assay": "Orthotopic UBC model, MB49-I tumors implanted in the bladder of female mice", "format": "in vivo", "settings": "i.p. biweekly at 150 μM during two weeks", "method": "Orthotopic UBC model. Female C57BL/6J mice (6-8 weeks old), each weighing 15-18 g, were anesthetized and a 24-gauge Teflon catheter was introduced into the bladder lumen through the urethra. To prepare the bladder for tumor implantation, a point lesion was induced in the bladder wall by electrocauterization. Then, 1×10^5 of MB49-I cells in 100 μl of PBS were instilled into the bladder. When indicated, control mice were electrocauterized and PBS was instilled into the bladder. Syringes containing the cell suspension were maintained into the catheter for 20 min to allow cell attachment to the bladder wall.^24,27"}, "[4]": {"system": "macrophage-like J774A.1 cells", "assay": "IFNγ/TNFα-induced NO production (Griess) in J774A.1 cells", "format": "cell-based, murine", "settings": "pretreatment then IFNγ and TNFα", "method": "Evaluation of NO and Urea production by chemical methods. The MB49-I cells and the J774A.1 cells (25×10^3 cells/well) were grown and pretreated, as indicated, with various anti-inflammatory derivatives, precursors and mono-functional derivatives for a period of 3 h. Afterwards the cells were washed twice with 10% FBS RPMI-1640 and then activated to produce NO for a period of 24 h with cytokines INFγ and TNFα. NO production was measured using the Griess reagent method as previously described.^27 This method involves the detection of nitrite ions (NO2^−) formed by the spontaneous oxidation of NO under physiological conditions. According the manufacture procedure (Life Technologies; # G-7921), equal volumes of sulfanilic acid and N-(1-naphthyl)ethylenediamine are mixed together to form the Griess reagent. In the presence of NO2^−, sulfanilic acid is converted to a diazonium salt, which in turn is coupled to N-(1-naphthyl)ethylenediamine to produce a pink coloration that is measured with a spectrophotometer (Biotek, synergy HT) at 548 nm. In the same manner, urea synthesis through arginase-1 activity was measured using commercially available kit."}},
  "note": "“Also recorded” adds a separate entry of the source.",
  "data": [
    {"compound": "CC(C)(C)OC(=O)NNC(=O)c1ccc(N2C(=O)C=CC2=O)cc1", "note": "[Compound 4, N′-[4-(2,5-dioxo-2,5-dihydro-pyrrol-1-yl)-benzoyl]-hydrazine carboxylic acid tert-butyl ester]", "values": [
      {"measurement": "relative cell viability / cell survival", "setting": "MB49 cells", "value": "stopping cell proliferation"},
      {"measurement": "IL6-induced STAT3 activation (ratio of phosphorylated/no phosphorylated proteins)", "setting": "STAT3", "value": "decreased; also recorded: efficiently inhibited"},
      {"measurement": "M1-induced human UBC T24 cell invasion", "setting": "human UBC T24 cells [1]", "value": "efficiently inhibited"},
      {"measurement": "IL6-induced motility (scratch assay)", "setting": "human UBC T24 cells [2]", "value": "inhibit; also recorded: efficiently inhibited"},
      {"measurement": "IL6/STAT3 signaling pathway (Western blot)", "setting": "[3]", "value": "inhibit; also recorded: efficiently inhibited"},
      {"measurement": "NO production in peritoneal macrophages", "setting": "peritoneal macrophages", "value": "significant decrease; also recorded: significantly decrease"},
      {"measurement": "urea synthesis and release in peritoneal macrophages", "setting": "peritoneal macrophages", "value": "significant decrease; also recorded: significantly decrease"},
      {"measurement": "IFNγ-induced CD40 expression", "setting": "CD40", "value": "effective in reducing; also recorded: efficiently inhibited"},
      {"measurement": "IFNγ-induced MHC-II expression", "setting": "MHC-II", "value": "effective in reducing; also recorded: efficiently inhibited"},
      {"measurement": "development of muscle-invasive MB49-I tumors in the bladder", "setting": "MB49-I tumors", "value": "stopped; also recorded: completely abolished"},
      {"measurement": "combined IFNγ/TNFα-induced NO synthesis", "setting": "[4]", "value": "effective in reducing; also recorded: efficiently inhibited"}
    ]}
  ]
}
